# Measured values as given in article PMC11288027, “Exploring novel microbial metabolites and drugs for inhibiting Clostridioides difficile” (mSphere, 2024).
# Like-named read-outs stand apart in the source and are kept apart here.
# What was measured:
# [1] = tested on: C. difficile clinical isolates; test: MIC against a panel of 20 C. difficile clinical isolates (broth microdilution); type: cell-based, Clostridioides difficile; conditions: Clostridioides difficile; for MIC50: concentration that inhibited 50% of the 20 C. difficile clinical isolates, read-out: MIC50; for MIC: read-out: minimum inhibitory concentration (MIC)
# [2] = tested on: B. fragilis; test: MIC against human gut microbiota; type: cell-based, Bacteroides fragilis; conditions: Bacteroides fragilis, anaerobic, read-out: minimum inhibitory concentration (MIC)
# [3] = tested on: B. dorei; test: MIC against human gut microbiota; type: cell-based, Bacteroides dorei; conditions: Phocaeicola dorei; B. dorei HM- 719, BHIS broth, anaerobic; read-out: minimum inhibitory concentration (MIC)
# [4] = tested on: Bif. breve; test: MIC against human gut microbiota; type: cell-based, Bifidobacterium breve; conditions: Bifidobacterium breve, ATCC15700; Bif. breve ATCC 15700, BHIS broth, anaerobic; read-out: minimum inhibitory concentration (MIC)
# [5] = tested on: Bif. angulatum; test: MIC against human gut microbiota; type: cell-based, Bifidobacterium angulatum; conditions: Bifidobacterium angulatum; Bif. angulatum HM- 1189, BHIS broth, anaerobic; read-out: minimum inhibitory concentration (MIC)
# [6] = tested on: Bif. adolescentis; test: MIC against human gut microbiota; type: cell-based, Bifidobacterium adolescentis; conditions: Bifidobacterium adolescentis; Bif. adolescentis HM- 633, BHIS broth, anaerobic; read-out: minimum inhibitory concentration (MIC)
# [7] = tested on: Bif. longum; test: MIC against human gut microbiota; type: cell-based, Bifidobacterium longum; conditions: Bifidobacterium longum, anaerobic, read-out: minimum inhibitory concentration (MIC)
# [8] = tested on: E. faecium; test: MIC against human gut microbiota; type: cell-based, Enterococcus faecium; conditions: Enterococcus faecium; E. faecium HM-202, TSB, aerobic; read-out: minimum inhibitory concentration (MIC)
# [9] = tested on: E. fecalis; test: MIC against human gut microbiota; type: cell-based, Enterococcus faecalis; conditions: Enterococcus faecalis; E. fecalis HM-970, TSB, aerobic; read-out: minimum inhibitory concentration (MIC)
# [10] = tested on: L. casei; test: MIC against human gut microbiota; type: cell-based; conditions: Lacticaseibacillus casei, ATCC334; L. casei ATCC 334, MRS broth, 5% CO2; read-out: minimum inhibitory concentration (MIC)
# [11] = tested on: L. brevis; test: MIC against human gut microbiota; type: cell-based, Lactobacillus brevis; conditions: Levilactobacillus brevis, ATCC14864; L. brevis ATCC-14864, MRS broth, 5% CO2; read-out: minimum inhibitory concentration (MIC)
# [12] = tested on: L. rhamanosus; test: MIC against human gut microbiota; type: cell-based, Lactobacillus rhamnoosus; conditions: Lactobacillus, ATCC53103; L. rhamanosus ATCC-53103, MRS broth, 5% CO2; read-out: minimum inhibitory concentration (MIC)
# [13] = tested on: Bifidobacterium species; test: MIC against human gut microbiota, summary in text; type: cell-based; conditions: summary over the Bifidobacterium strains of Table 4
# [14] = tested on: C. difficile ATCC BAA-1870; test: MIC of active hits by broth microdilution; conditions: C. difficile ATCC BAA-1870, 48 h anaerobic
smiles,measurement,setting,value
CCCCc1oc2ccc(NS(C)(=O)=O)cc2c1C(=O)c1ccc(OCCCN(CCCC)CCCC)cc1 [Dronedarone],MIC50,[1]; 48 h,4 mg/L
same,MIC,"[1]; ATCC630, C. difficile ATCC 630",4 mg/L
same,MIC,"[1]; ATCC43255, C. difficile ATCC 43255",4 mg/L
same,MIC,"[1]; ATCCBAA1870, C. difficile ATCC BAA-1870 (Ribotype-027), purchased compounds, panel test",4 mg/L
same,MIC,[1]; C. difficile CD-1 (Ribotype-027),4 mg/L
same,MIC,[1]; C. difficile CD-6 (Ribotype-027),4 mg/L
same,MIC,[1]; C. difficile CD-10(Ribotype-027),4 mg/L
same,MIC,[1]; C. difficile CD-12,4 mg/L
same,MIC,[1]; C. difficile CD-13,4 mg/L
same,MIC,[1]; C. difficile CD-15,4 mg/L
same,MIC,[1]; C. difficile CD-22,2 mg/L
same,MIC,[1]; C. difficile CD-23,8 mg/L
same,MIC,[1]; C. difficile CD-24,2 mg/L
same,MIC,[1]; C. difficile CD-26 (Ribotype-027),4 mg/L
same,MIC,[1]; C. difficile CD-28,8 mg/L
same,MIC,[1]; C. difficile CD-29 (Ribotype-027),2 mg/L
same,MIC,[1]; C. difficile CD-30,8 mg/L
same,MIC,[1]; C. difficile NR-49302,4 mg/L
same,MIC,[1]; C. difficile NR-49304,2 mg/L
same,MIC,[1]; C. difficile NR-49308,4 mg/L
same,MIC,[1]; C. difficile NR-49319,8 mg/L
same,MIC50,[1],4 mg/L
same,MIC90,"[1]; concentration that inhibited 90% of the 20 C. difficile clinical isolates, read-out: MIC90",8 mg/L
same,MIC,"[2]; B. fragilis HM- 709, BHIS broth",8 mg/L
same,MIC,"[2]; B. fragilis HM- 718, BHIS broth",8 mg/L
same,MIC,[3],8 mg/L
same,MIC,[4],8 mg/L
same,MIC,[5],8 mg/L
same,MIC,[6],8 mg/L
same,MIC,"[7]; Bif. longum HM- 845, BHIS broth",8 mg/L
same,MIC,"[7]; Bif. longum HM- 846, BHIS broth",8 mg/L
same,MIC,"[7]; Bif. longum HM- 847, BHIS broth",8 mg/L
same,MIC,"[7]; Bif. longum HM- 848, BHIS broth",8 mg/L
same,MIC,[8],8 mg/L
same,MIC,[9],4 mg/L
same,MIC,[10],64 mg/L
same,MIC,[11],32 mg/L
same,MIC,[12],128 mg/L
same,MIC,[13],2 to 8 mg/L
same,MIC (μM),[14],8 µM
same,MIC,"[14]; Clostridioides difficile, ATCCBAA1870, 48 h",4.45 mg/L
